The source of these data is patent US20120202819A1, “COMBINATION THERAPY USING A BETA 3 […] RECEPTOR AGONISTS AND AN […] AGENT” (Merck Sharp & Dohme Corporation, priority 2009, published 2012).

By Ki is commonly meant the dissociation constant of the complex between target and ligand, obtained from inhibition or displacement.

Experiment [1] deals with distention-induced rhythmic bladder contraction. The experiment in a line: Distention-induced rhythmic bladder contraction in anesthetized female rats. In kind it is in vivo, SD rats. The conditions noted are these: iv, single dosing, urethane-anesthetized female rats. As for the experimental part: • OXY, 0.01, 0.03, 0.1 mg/kg, iv; […].
Next, combination dosing regimens shown below in Table 7 were conducted to compose an isobologram. There were 9 groups in total. ID20 values of OXY and CL was calculated in each combination rate.

Experiment [2] deals with EFS-induced isolated detrusor muscle contractions. The experiment in a line: EFS-induced contraction of isolated rat detrusor muscle strips, with isobologram analysis. Set-up: species or system Sprague-Dawley rats. Particulars: single compound, rat bladder strips, EFS. How it is done:
Male adult Sprague-Dawley rats were used. After euthanizing using CO2 gas, a whole bladder was removed. Longitudinal strips (about 6 mm×3 mm) of the extratrigonal portion of the detrusor muscle were prepared. […] The strips were tied at one end to the organ bath, and connected at the other end to an isometric transducer (AD Instruments) under a resting tension of 10 mN. The responses of the preparations were recorded at a sampling rate of 10 Hz by a multiple channel data acquisition system (PowerLab, AD Instruments), and measured with an analysis software (Chart, AD Instruments). After the equilibration period for at least 60 min, each tissue strip was challenged to electrical field stimulation (EFS) at 60 Hz; duration, 0.3 ms; 3 sec; 90 V to induce contractions. Upon obtaining stable contractions with EFS, compound solution (25 μL) was applied into organ bath in a cumulative manner. After 15 min of each compound treatment, EFS was applied.
Isobologram Analysis was used to evaluate the synergic effect of a combination therapy. Isobologram Analysis provides a visual assessment of the interaction of two different agents using independent statistical analysis. The statistical analysis can be accomplished from calculations of certain potency indices from single treatment of each compound and fixed-ratio combinations for the same effect.
Isobologram for some particular effect (e.g., 50% of the maximum) in which the dose of active agent A alone is A=20 and active agent B alone is B=100. The straight line connecting these intercept points (additivity line) is the locus of all dose pairs that, based on these potencies, should give the same effect, An actual dose pair such as point Q attains this effect with lesser quantities and is synergistic (or super-additive), while the dose pair denoted by point R means greater quantities are required and is therefore sub-additive.

The next experiment has as its target T1, muscarinic receptor M4 (Homo sapiens, UniProt P08173).
T1 sequence (P08173 1-479): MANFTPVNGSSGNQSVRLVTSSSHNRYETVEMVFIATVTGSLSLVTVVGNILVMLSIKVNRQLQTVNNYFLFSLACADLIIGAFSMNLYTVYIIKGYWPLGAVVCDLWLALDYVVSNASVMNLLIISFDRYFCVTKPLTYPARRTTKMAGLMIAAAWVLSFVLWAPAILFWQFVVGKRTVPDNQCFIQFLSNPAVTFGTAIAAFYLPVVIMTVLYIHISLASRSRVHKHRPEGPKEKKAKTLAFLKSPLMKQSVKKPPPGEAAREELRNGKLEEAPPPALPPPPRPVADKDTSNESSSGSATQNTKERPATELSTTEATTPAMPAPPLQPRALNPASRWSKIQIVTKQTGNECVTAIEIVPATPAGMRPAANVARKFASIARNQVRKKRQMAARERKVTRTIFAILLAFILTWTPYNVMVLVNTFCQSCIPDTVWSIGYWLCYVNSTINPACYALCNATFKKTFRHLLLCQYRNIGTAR
The conditions noted are these: Ohtake et al.; cited from earlier work.

Experiment [3] has as its target T2, muscarinic receptor M1 (Homo sapiens, UniProt P11229).
T2 sequence (P11229 1-460): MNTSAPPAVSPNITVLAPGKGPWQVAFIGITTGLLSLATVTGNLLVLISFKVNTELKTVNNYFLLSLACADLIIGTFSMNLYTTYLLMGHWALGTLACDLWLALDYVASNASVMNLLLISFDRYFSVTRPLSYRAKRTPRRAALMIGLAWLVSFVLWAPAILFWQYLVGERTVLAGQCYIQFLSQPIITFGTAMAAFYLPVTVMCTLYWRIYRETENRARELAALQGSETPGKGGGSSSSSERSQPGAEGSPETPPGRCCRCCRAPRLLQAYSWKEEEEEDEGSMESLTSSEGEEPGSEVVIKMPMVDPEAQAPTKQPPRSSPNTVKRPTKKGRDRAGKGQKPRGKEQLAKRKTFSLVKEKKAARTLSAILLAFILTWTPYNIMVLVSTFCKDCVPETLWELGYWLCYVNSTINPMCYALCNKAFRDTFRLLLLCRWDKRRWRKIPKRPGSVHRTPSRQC
The conditions noted are these: read-out: Ki (nM) M1, cited from earlier work.

Experiment [4] has as its target T3, muscarinic receptor M3 (Homo sapiens, UniProt P20309). Particulars: cited from earlier work.
Experiment [5] has as its target T4, muscarinic receptor M2 (Homo sapiens, UniProt P08172).
T4 sequence (P08172 1-466): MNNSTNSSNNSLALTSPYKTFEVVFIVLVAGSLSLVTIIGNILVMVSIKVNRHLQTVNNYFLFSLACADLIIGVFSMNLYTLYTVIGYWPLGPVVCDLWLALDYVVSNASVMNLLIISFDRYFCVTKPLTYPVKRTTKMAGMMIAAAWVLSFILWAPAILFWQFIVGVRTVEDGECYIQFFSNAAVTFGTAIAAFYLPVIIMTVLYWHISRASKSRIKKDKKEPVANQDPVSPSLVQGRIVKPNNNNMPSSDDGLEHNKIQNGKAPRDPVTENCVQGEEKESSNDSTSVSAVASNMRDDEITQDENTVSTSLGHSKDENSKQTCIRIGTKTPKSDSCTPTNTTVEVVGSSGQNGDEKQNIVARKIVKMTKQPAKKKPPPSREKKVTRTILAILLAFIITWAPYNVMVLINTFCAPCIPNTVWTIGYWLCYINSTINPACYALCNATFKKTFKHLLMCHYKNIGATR
Particulars: Ohtake et al.; cited from earlier work.

A further experiment deals with bladder capacity. The experiment in a line: Bladder capacity (cystometry) in anesthetized rhesus monkeys. The format is in vivo, rhesus monkeys (Macaca mulatta). Particulars: mean of 4-6 animals. From the text:
Adult female rhesus monkeys (Macaca mulatta) weighed 5.3-6.2 kg (4-7 year-old) were used. The subjects were either paired or individually housed on a 12-h light/12-h dark cycle (lights on at 7:00 AM). Their diet consisted of 2050 Teklad (Harlan Laboratories, Indianapolis, Ind.) and fresh fruit or vegetable. Water was freely available. All animals were observed daily by a veterinary technician and caretakers for signs of ill health. Subjects were repeatedly used with >13-day resting period. Monkeys were anesthetized with an intramuscular injection of either Telazol (3-5 mg/kg) or ketamine (10-20 mg/kg) followed by intravenous constant rate infusion with ketamine (0.2-0,8 mg/kg/min) using a syringe pump (552222, Harvard Apparatus, Holliston, Mass.). Animals were placed in a supine position and a triple lumen balloon transurethral catheter (7.4 Fr, Cook Medical, Bloomington, Ind.) was inserted into the bladder and the balloon was inflated with 1 mL of water to secure the tip of catheter at the bladder base. The catheter was connected with an infusion pump (Gemini PC-2TX, ALARIS Medical Systems, San Diego, Calif.) for bladder filling and a pressure transducer for intravesical pressure monitoring. Intravesical pressure was continuously recorded using a multiple channel data acquisition system (Power lab, AD Instruments, Biopac systems, Colorado Springs, Colo.) at a sampling rate of 20 Hz. After confirming bladder emptiness by an ultrasonography (Logiq e vet, GE Medical Systems, Waukesha, Wis., FIG. 1A), saline was intravesically infused at 15 mL/min. When the steep rise in pressure indicative of the micturition reflex was observed, intravesical infusion was stopped and the bladder was manually emptied with a 60 ml syringe.
After two baseline cystometry readings, drug was intravenously administered three times using a rising dose paradigm with a cystometry performed 10 min after each dose. Bladder capacity was measured for each cystometry and % change from the baseline capacity was calculated. As used herein, the term “baseline capacity” or “baseline” means the average bladder capacity from two pre-dose measurements.
The reported results are mean values of % change from baseline in 4-6 animals.

Experiment [6] has as its target T3, muscarinic receptor M3. The conditions noted are these: Hegde et al.; cited from earlier work.
For experiment [7], the target named is T4, muscarinic receptor M2. Particulars: Hegde et al.; cited from earlier work.
For experiment [8], the target named is T2, muscarinic receptor M1. The conditions noted are these: Hegde et al.; cited from earlier work.

Like-named read-outs stand apart in the source and are kept apart here.

T3 sequence (P20309 whole entry): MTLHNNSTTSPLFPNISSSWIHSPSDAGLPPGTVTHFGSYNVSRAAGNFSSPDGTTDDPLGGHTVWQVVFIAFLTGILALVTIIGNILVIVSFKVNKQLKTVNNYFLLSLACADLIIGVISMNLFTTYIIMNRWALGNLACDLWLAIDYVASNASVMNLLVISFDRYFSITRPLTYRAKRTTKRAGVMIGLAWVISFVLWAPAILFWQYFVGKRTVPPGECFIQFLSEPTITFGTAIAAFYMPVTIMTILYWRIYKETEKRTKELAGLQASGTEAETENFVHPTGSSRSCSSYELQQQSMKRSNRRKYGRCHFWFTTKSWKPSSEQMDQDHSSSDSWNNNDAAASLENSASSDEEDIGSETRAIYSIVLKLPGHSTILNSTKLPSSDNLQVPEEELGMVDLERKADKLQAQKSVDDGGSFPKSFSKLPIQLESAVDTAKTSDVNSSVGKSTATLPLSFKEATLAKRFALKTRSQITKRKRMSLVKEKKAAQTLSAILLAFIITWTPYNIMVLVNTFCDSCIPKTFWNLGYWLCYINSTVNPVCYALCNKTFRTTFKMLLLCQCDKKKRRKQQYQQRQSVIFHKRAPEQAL

For the compound `C[C@H](Cc1ccc2c(c1)OC(C(=O)[O-])(C(=O)[O-])O2)NC[C@H](O)c1cccc(Cl)c1.[Na+].[Na+]` [CL316243, disodium (R,R)-5-(2-((2-(3-ehlorophenyl)-2-hydroxyethyl)-amino)propyl)-1,3-benzodioxole-2,3-dicarboxylate], in experiment [1], the “ID20 (dose decreasing amplitude by 20%)” value is reported as 0.024 MPK. In addition, the “IC25 (concentration which induced 25% inhibition of detrusor contraction)” value in [2] came out at 2.86 nM.

For `CCN(CC)CC#CCOC(=O)C(O)(c1ccccc1)C1CCCCC1` (centres unmarked) [Oxybutynin, 4-diethylaminobut-2-ynyl2-cyclohexyl-2-hydroxy-2-phenyl-ethanoate], in experiment [1], the “ID20 (dose decreasing amplitude by 20%)” value is given as 0.057 MPK.

On to `CCCOC(C(=O)OC1CCN(C)CC1)(c1ccccc1)c1ccccc1` [Propiverine], for which the Ki at muscarinic receptor M4 was 900 ± 200 nM; at muscarinic receptor M1 [3] (Ohtake et al.), 490 ± 110 nM; on muscarinic receptor M3 [4] (Ohtake et al.), 350 ± 53 nM; at muscarinic receptor M2 [5] it was 1400 ± 220 nM. For the same compound, the M2/M3 ratio on muscarinic receptor M3 [4] (Ohtake et al., ratio of Ki M2 to Ki M3) is reported as 4.

`O=C(O[C@H]1CN2CCC1CC2)N1CCc2ccccc2[C@@H]1c1ccccc1` [Solifenacin]: the Ki at muscarinic receptor M4 was 110 ± 45 nM; at muscarinic receptor M1 [3] it was 26 ± 2 nM; at muscarinic receptor M3 [4] (Ohtake et al.), 12 ± 4.4 nM; on muscarinic receptor M2 [5], 170 ± 37 nM. Also, the M2/M3 ratio at muscarinic receptor M3 [4] is on record as 14.

For the compound `Cc1ccc(O)c([C@@H](CCN(C(C)C)C(C)C)c2ccccc2)c1` [Tolterodine, 2-[(1S)-3-(diisopropylamino)-1-phenylpropyl]-4-methylphenol], the Ki was 6.6 ± 1.7 nM on muscarinic receptor M4 and 2.7 ± 0.23 nM on muscarinic receptor M1 [3]. In addition, the “Bladder capacity, % change from baseline” value is 8.6% in the experiment with bladder capacity (mono-therapy 0.01 mg/kg iv, listed as TOL); 16.8% in the experiment with bladder capacity (mono-therapy 0.03 mg/kg iv, listed as TOL); 40.3% in the experiment with bladder capacity (mono-therapy 0.1 mg/kg iv). Moreover, the “IC25 (concentration which induced 25% inhibition of detrusor contraction)” value in experiment [2] is recorded as 4.71 nM.

For the compound `O=C(O[C@H]1C[C@H]2CC[C@@H](C1)[N+]21CCCC1)C(O)(c1ccccc1)c1ccccc1` [Trospium], the Ki on muscarinic receptor M3 [6] is 0.5 nM; at muscarinic receptor M2 [7], 0.65 nM; on muscarinic receptor M1 [8], 0.75 nM. The M2/M3 ratio on muscarinic receptor M3 [6] is listed as 1.
